{
  "source": "patent US20060135608A1",
  "about": "“Eicosapentaenoic acid (epa) for treating anorexia nervosa (an) and bulimia” (priority 2002, published 2006)",
  "key": {"patient with AN": {"tested_on": "patient with AN", "test": "Example 1: case of a patient with AN treated with 1 g/d ethyl-EPA", "type": "in vivo, human", "from_the_text": "A patient presented with a 14-month history of dieting and eating difficulties. These had started with dietary restrictions and excessive exercise and proceeded to laxative abuse. Two months prior to being first seen they had stopped taking all solid food. When first seen their weight was still within the normal range for their height at 55 kg for 1.63 m. However, they had lost 8 kg since stopped solid food, had stopped menstruation and begun to grow the fine, downy “lanugo” hair over their body which is common in AN.\nThey were treated with a standard AN regime of family therapy, psychotherapy and dietary advice. This was ineffective and over the next two months they lost around 10 kg which necessitated their admission to hospital. At this point they were extremely distressed and unable or unwilling to maintain a conversation. Despite their emaciation they were still preoccupied with being fat and wanted to lose more weight. Their heart rate was very slow and their blood glucose was low, signs of starvation. They were treated as an emergency with compulsory naso-gastric feeding with parental consent. After two weeks of this therapy they had gained a little over 2 kg and begun to eat small amounts by mouth. At the end of this time their family removed them from hospital against medical advice.\nOver the following ten days they lost a further 5 kg in weight to 42 kg. Their doctors believed that their life was in danger and so obtained an order for compulsory admission to hospital. At the start of this admission they were treated with 1 g/d of ethyl-eicosapentaenoate (E-EPA). This transformed their response to treatment. […] Their mood and cognitive functions improved and they became normally communicative. Instead of being obsessed by weight and food to the exclusion of everything else, they became interested in all aspects of their life and their future. […] After 12 weeks they were discharged from hospital and their body weight stabilised around a normal 62-65 kg. They took a summer job which they enjoyed and completed successfully and enrolled in a college course."}, "[1]": {"tested_on": "patients with anorexia nervosa", "test": "Example 2: seven patients with anorexia nervosa or related disorders treated with 1 g/day E-EPA", "type": "in vivo, human", "from_the_text": "Seven patients underwent treatment of their disorders using EPA. FIGS. 1-5 summarise the results of this study. Participants were given 1 g/day ethyl-EPA (E-EPA) for an initial 3 month period. The E-EPA provided by Laxdale Limited was over 95% pure EPA. If the patient and family wished to continue beyond 3 months, the dose was continued, and in some cases increased beyond 1 g/day. All patients were offered the standard treatment available at the local district health services, including full psychiatric and physical assessment, regular monitoring of physical parameters. Parameters monitored on a monthly basis included the patient's weight and height. BMI, and average body weight and height (ABW) were calculated using Weight 4 Height software (based on 1990 British reference data by the Child Growth Foundation). The following standard psychometric measures were used: EDI-2, BDI-2, CGAS, CGI-S, Morgan-Russell, and patient Likert Scales (including problems, general and improvement)."}, "[2]": {"settings": "3 months after discharge, scored 0 to 12"}, "[3]": {"settings": "Patient 2, 1-year follow-up, dosage increased to 2 g/day in later stages"}, "[4]": {"settings": "Patient 5, after three months, 1 g/day"}, "[5]": {"settings": "Patient 6, end of three months, 1 g/day"}},
  "data": [
    {"smiles": "CC/C=C\\C/C=C\\C/C=C\\C/C=C\\C/C=C\\CCCC(=O)OCC", "note": "[E-EPA, ethyl-eicosapentaenoate]", "values": [
      {"measurement": "body image perceptions", "setting": "patient with AN; 1 g/d, over 12 weeks", "result": "lost their distorted body image perceptions"},
      {"measurement": "mood and cognitive functions", "setting": "patient with AN; 1 g/d, over 12 weeks", "result": "improved"},
      {"measurement": "eating", "setting": "patient with AN; 1 g/d, over the following weeks", "result": "began to eat normally"},
      {"measurement": "Wt kg", "setting": "patient with AN; 2nd hospital discharge on EPA (12 weeks, 1 g/d), 42 at 2nd hospital admission", "result": 57, "unit": "kg"},
      {"measurement": "MR-O (Morgan-Russell overall scale)", "setting": "patient with AN; 2nd hospital discharge on EPA, scored 0 to 12, 12 completely normal, 1.2 at 2nd admission", "result": 12.0},
      {"measurement": "MR-A (food intake)", "setting": "patient with AN; 2nd hospital discharge on EPA, scored 0 to 12, 0.0 at 2nd admission", "result": 12.0},
      {"measurement": "MR-E (overall social-economic-health state)", "setting": "patient with AN; 2nd hospital discharge on EPA, scored 0 to 12, 1.0 at 2nd admission", "result": 9.0},
      {"measurement": "MR-C (mental state)", "setting": "patient with AN; 2nd hospital discharge on EPA, scored 0 to 12, 4.0 at 2nd admission", "result": 8.0},
      {"measurement": "Wt kg", "setting": "patient with AN; 3 months after discharge", "result": 63, "unit": "kg"},
      {"measurement": "MR-A (food intake)", "setting": "patient with AN; [2]", "result": 12.0},
      {"measurement": "MR-C (mental state)", "setting": "patient with AN; [2]", "result": 12.0},
      {"measurement": "MR-E (overall social-economic-health state)", "setting": "patient with AN; [2]", "result": 11.0},
      {"measurement": "MR-O (Morgan-Russell overall scale)", "setting": "patient with AN; [2]", "result": 12.0},
      {"measurement": "body weight stabilised", "setting": "patient with AN; after discharge from hospital at 12 weeks", "result": "62 to 65", "unit": "kg"},
      {"measurement": "body weight", "setting": "patient with AN; within 12 weeks of 1 g/d, 42 kg at start", "result": 57, "unit": "kg"},
      {"measurement": "ABW", "setting": "[1]; [3]", "result": 88.3, "unit": "%"},
      {"measurement": "BMI", "setting": "[1]; [3]", "result": 17.74},
      {"measurement": "clinical response", "setting": "[1]; Patient 2, after restart of E-EPA and zinc treatment", "result": "significant improvement"},
      {"measurement": "lowest ABW", "setting": "[1]; Patient 2, after stopping E-EPA at 6 months", "result": 73, "unit": "%"},
      {"measurement": "clinical response", "setting": "[1]; Patient 2, by three months, 1 g/day", "result": "partially improved"},
      {"measurement": "ABW", "setting": "[1]; Patient 2, three months, 1 g/day, 84.4% after NG feeding", "result": 86.34, "unit": "%"},
      {"measurement": "growth in height", "setting": "[1]; Patient 3, in three months, 1 g/day", "result": 3, "unit": "cm"},
      {"measurement": "mental state", "setting": "[1]; Patient 3, three months, 1 g/day", "result": "significantly improved"},
      {"measurement": "BMI", "setting": "[1]; Patient 3, three months, 1 g/day, 13.3 at referral", "result": 15.5},
      {"measurement": "ABW", "setting": "[1]; Patient 3, three months, 1 g/day, 74.4% at referral", "result": 81, "unit": "%"},
      {"measurement": "psychometric measures", "setting": "[1]; Patient 4, 1 g/day", "result": "marked improvement"},
      {"measurement": "weight stabilised, ABW", "setting": "[1]; Patient 4, 1 g/day for a total of 6 months, 83.9% at discharge from paediatric hospital", "result": "around 85.5%"},
      {"measurement": "mood", "setting": "[1]; Patient 4, after two months, 1 g/day", "result": "dramatic improvement"},
      {"measurement": "ABW", "setting": "[1]; Patient 4, within three months after they stopped taking the E-EPA", "result": 80, "unit": "%"},
      {"measurement": "panic attacks", "setting": "[1]; Patient 5, E-EPA increased to 4 g/day", "result": "helped with their panic attacks"},
      {"measurement": "anxiety", "setting": "[1]; [4]", "result": "did not improve"},
      {"measurement": "weight, eating habits and mood", "setting": "[1]; [4]", "result": "dramatic improvement"},
      {"measurement": "BMI", "setting": "[1]; Patient 5, after three months, 1 g/day, 17.15 before", "result": 20},
      {"measurement": "ABW", "setting": "[1]; Patient 5, after three months, 1 g/day, 77% before", "result": 90, "unit": "%"},
      {"measurement": "anorexic symptoms", "setting": "[1]; [5]", "result": "complete resolution"},
      {"measurement": "growth in height", "setting": "[1]; [5]", "result": 3, "unit": "cm"},
      {"measurement": "BMI", "setting": "[1]; Patient 6, end of three months, 1 g/day, 17.57 at first presentation", "result": 19.1},
      {"measurement": "ABW", "setting": "[1]; Patient 6, end of three months, 1 g/day, 87% at first presentation", "result": 93.6, "unit": "%"},
      {"measurement": "clinical response", "setting": "[1]; Patient 6, within the first 4-6 weeks, 1 g/day", "result": "improved dramatically"},
      {"measurement": "growth in height", "setting": "[1]; Patient 7, during three months treatment", "result": 1.5, "unit": "cm"},
      {"measurement": "BMI", "setting": "[1]; Patient 7, end of three months treatment, 1 g/day, 14.8 before", "result": 16.21},
      {"measurement": "ABW", "setting": "[1]; Patient 7, end of three months treatment, 1 d/day, 78.21 before", "result": 84.5, "unit": "%"},
      {"measurement": "clinical response (appetite, mood, self-esteem, psychometric measures)", "setting": "[1]; Patient No 1, after 2 months of treatment", "result": "remarkable improvement"},
      {"measurement": "BMI", "setting": "[1]; Patient No 1, after three months of 1 g E-EPA, 16.9 at hospital admission", "result": 22.8},
      {"measurement": "ABW", "setting": "[1]; Patient No 1, after three months of 1 g E-EPA, 83.6% at hospital admission", "result": 111, "unit": "%"},
      {"measurement": "relapse of anorexia", "setting": "[1]; Patient No 1, one-year follow-up, E-EPA stopped after three months", "result": "no return of their anorexia"},
      {"measurement": "cases with complete recovery", "setting": "[1]; of the seven patients", "result": "three"},
      {"measurement": "cases with partial improvement", "setting": "[1]; of the seven patients", "result": "four"},
      {"measurement": "growth response", "setting": "[1]; patients who had growth delay, during the time of the E-EPA treatment", "result": "significant growth"},
      {"measurement": "deterioration whilst taking the E-EPA", "setting": "[1]; seven patients", "result": "no patient deteriorated"}
    ]}
  ]
}
